Reference: ChEMBL document CHEMBL4340535, “Antitumor effect of chiral organotelluranes elicited in a murine melanoma model” (Bioorg Med Chem, 2019)
Active and inactive are the calls of the source. No cut-off for these calls is given here.

Key:
HUVEC [1] = experiment: Anti-angiogenic activity in human HUVEC cells assessed as inhibition in pro-angiogenic structures formation in presence of fetal calf serum at 5 uM incubated for 18 hrs by inverted light microscopy based matrigel assay; assay type: functional
[2] = biological target: Cathepsin B (Homo sapiens) (UniProt P07858); experiment: Inhibition of human recombinant cathepsin B assessed as second-order inhibition rate constant using Z-RR-MCA as substrate incubated for 10 mins by spectrofluorimetric method
B16F10Nex2 [3] = experiment: Inhibition of cell adhesion of mouse B16F10Nex2 cells assessed as reduction in cell adhesion to fibronectin at 2 uM incubated for 3 hrs by toluidine blue staining based assay; assay type: functional
HT-144 [4] = experiment: Induction of morphological changes in human HT144 cells assessed as retraction of cell protrusions at 10 uM incubated for 24 hrs by tubulin-Cy2 and TOPRO-3 staining based confocal microscopic method; assay type: functional
B16F10Nex2 [5] = experiment: Cytotoxicity against mouse B16F10Nex2 cells assessed as reduction in cell viability incubated for 16 hrs by MTT assay; assay type: functional, cell-based; details: for IC50: B16F10Nex2, 16 h
B16F10Nex2 [6] = experiment: Induction of morphological changes in mouse B16F10Nex2 cells assessed as membrane blebbing at 10 uM incubated for 24 hrs by tubulin-Cy2 and TOPRO-3 staining based confocal microscopic method; assay type: functional, cell-based
B16F10Nex2 [7] = experiment: Anti-invasive activity in mouse B16F10Nex2 cells assessed as reduction in invasive potential at 20 uM incubated for 24 hrs by Giemsa staining based matrigel assay relative to control; assay type: functional; details: B16F10Nex2, 24 h
HT-144 [8] = experiment: Induction of morphological changes in human HT144 cells at 10 uM incubated for 24 hrs by tubulin-Cy2 and TOPRO-3 staining based confocal microscopic method; assay type: functional, cell-based
B16F10Nex2 [9] = experiment: Induction of morphological changes in mouse B16F10Nex2 cells assessed as retraction of cell protrusions at 10 uM incubated for 24 hrs by tubulin-Cy2 and TOPRO-3 staining based confocal microscopic method; assay type: functional
B16F10Nex2 [10] = experiment: Antitumor activity against mouse B16F10Nex2 cells transplanted in C57BL/6 mouse assessed as reduction in lungs superficial nodules at 20 uM, ip administered every other day for 12 days and measured 21 days post transplantation relative to control; assay type: functional
HT-144 [11] = experiment: Induction of morphological changes in human HT144 cells assessed as reduction in stress fibers formation by measuring cell rounding at 30 uM incubated for 24 hrs by phalloidin-TRITC, tubulin-Cy2 and TOPRO-3 staining based confocal microscopic method; assay type: functional
NIH3T3 = experiment: Cytotoxicity against mouse 3T3 cells assessed as reduction in cell viability incubated for 16 hrs by MTT assay; assay type: cell-based; details: for IC50: Mus musculus, NIH3T3, 16 h; for Activity: mouse, nih3t3, 16 h
B16F10Nex2 [12] = experiment: Inhibition of cell adhesion of mouse B16F10Nex2 cells assessed as reduction in cell adhesion to type 4 collagen at 2 uM incubated for 3 hrs by toluidine blue staining based assay; assay type: functional
HT-144 [13] = experiment: Induction of morphological changes in human HT144 cells assessed as cell rounding at 10 uM incubated for 24 hrs by tubulin-Cy2 and TOPRO-3 staining based confocal microscopic method; assay type: functional
SK-MEL-25 = experiment: Cytotoxicity against human SK-MEL-25 cells assessed as reduction in cell viability incubated for 16 hrs by MTT assay; assay type: functional, cell-based; details: for IC50: SK-MEL-25, 16 h
HT-144 [14] = experiment: Cytotoxicity against human HT144 cells assessed as reduction in cell viability incubated for 16 hrs by MTT assay; assay type: functional, cell-based
A2058 = experiment: Cytotoxicity against human A2058 cells assessed as reduction in cell viability incubated for 16 hrs by MTT assay; assay type: functional, cell-based; details: for IC50: A2058, 16 h
HT-144 [15] = experiment: Induction of morphological changes in human HT144 cells assessed as membrane blebbing at 10 uM incubated for 24 hrs by tubulin-Cy2 and TOPRO-3 staining based confocal microscopic method; assay type: functional, cell-based
SK-MEL-28 = experiment: Cytotoxicity against human SK-MEL-28 cells assessed as reduction in cell viability incubated for 16 hrs by MTT assay; assay type: functional, cell-based; details: for IC50: SK-MEL-28, 16 h
HUVEC [16] = experiment: Cytotoxicity against human HUVEC cells assessed as reduction in cell viability incubated for 16 hrs by MTT assay; assay type: cell-based; details: for IC50: Homo sapiens, HUVEC; for Activity: human, huvec
HT-144 [17] = experiment: Induction of morphological changes in human HT144 cells assessed as depolymerisation of F-actin at 10 uM incubated for 24 hrs by tubulin-Cy2 and TOPRO-3 staining based confocal microscopic method; assay type: functional, cell-based
HT-144 [18] = experiment: Induction of morphological changes in human HT144 cells assessed as reduction in stress fibers formation by measuring remaining cortical actin in close association with the microtubule network at 30 uM incubated for 24 hrs by phalloidin-TRITC, tubulin-Cy2 and TOPRO-3 staining based confocal microscopic method; assay type: functional, cell-based
B16F10Nex2 [19] = experiment: Induction of morphological changes in mouse B16F10Nex2 cells at 10 uM incubated for 24 hrs by tubulin-Cy2 and TOPRO-3 staining based confocal microscopic method; assay type: functional, cell-based
B16F10Nex2 [20] = experiment: Inhibition of cell adhesion of mouse B16F10Nex2 cells assessed as reduction in cell adhesion to type 1 collagen at 2 uM incubated for 3 hrs by toluidine blue staining based assay; assay type: functional
MeWo = experiment: Cytotoxicity against human MeWo cells assessed as reduction in cell viability incubated for 16 hrs by MTT assay; assay type: functional, cell-based
B16F10Nex2 [21] = experiment: Induction of morphological changes in mouse B16F10Nex2 cells assessed as depolymerisation of F-actin at 10 uM incubated for 24 hrs by tubulin-Cy2 and TOPRO-3 staining based confocal microscopic method; assay type: functional, cell-based
B16F10Nex2 [22] = experiment: Inhibition of cell adhesion of mouse B16F10Nex2 cells assessed as reduction in cell adhesion to laminin at 2 uM incubated for 3 hrs by toluidine blue staining based assay; assay type: functional
[23] = biological target: Procathepsin L (Homo sapiens) (UniProt P07711); experiment: Inhibition of human recombinant cathepsin L expressed in Pichia pastoris assessed as second-order inhibition rate constant using Z-FR-MCA as substrate incubated for 10 mins by spectrofluorimetric method
B16F10Nex2 [24] = experiment: Antitumor activity against mouse B16F10Nex2 cells transplanted in C57BL/6 mouse assessed as reduction in lung metastases at 20 uM, ip administered for 5 non-consecutive days and measured 21 days post transplantation relative to control; assay type: functional; set-up: scale not given: the % may be the effect or the level left
[25] = biological target: Cathepsin S (Homo sapiens) (UniProt P25774); experiment: Inhibition of human recombinant cathepsin S assessed as second-order inhibition rate constant using Z-FR-MCA as substrate incubated for 10 mins by spectrofluorimetric method
HT-144 [26] = experiment: Induction of morphological changes in human HT144 cells assessed as cell rounding with remaining cortical actin in close association with the microtubule network at 30 uM incubated for 24 hrs by phalloidin-TRITC, tubulin-Cy2 and TOPRO-3 staining based confocal microscopic method; assay type: functional
HeLa = experiment: Cytotoxicity against human HeLa cells assessed as reduction in cell viability incubated for 16 hrs by MTT assay; assay type: functional, cell-based
HUVEC [27] = experiment: Anti-angiogenic activity in human HUVEC cells assessed as inhibition in pro-angiogenic structures formation in presence of fetal calf serum at 0.062 uM incubated for 18 hrs by inverted light microscopy based matrigel assay; assay type: functional
HUVEC [28] = experiment: Anti-invasive activity in human HUVEC cells assessed as reduction in invasive potential at 20 uM incubated for 24 hrs by Giemsa staining based matrigel assay; assay type: functional, cell-based
B16F10Nex2 [29] = experiment: Antimigratory activity against mouse B16F10Nex2 cells assessed as reduction in cell migration towards wound area at 20 uM measured every hour for 24 hrs by scratch wound-healing assay relative to control; assay type: functional; details: B16F10Nex2, 24 h
B16F10Nex2 [30] = experiment: Induction of morphological changes in mouse B16F10Nex2 cells assessed as cell rounding at 10 uM incubated for 24 hrs by tubulin-Cy2 and TOPRO-3 staining based confocal microscopic method; assay type: functional
HUVEC [31] = experiment: Antimigratory activity against human HUVEC cells assessed as reduction in cell migration towards wound area at 20 uM measured every hour for 24 hrs by scratch wound-healing assay relative to control; assay type: functional
HUVEC [32] = experiment: Anti-angiogenic activity in human HUVEC cells assessed as inhibition in pro-angiogenic structures formation in presence of fetal calf serum at 0.5 uM incubated for 18 hrs by inverted light microscopy based matrigel assay; assay type: functional

Procathepsin L (Homo sapiens), sequence (P07711 114-333 limits assumed): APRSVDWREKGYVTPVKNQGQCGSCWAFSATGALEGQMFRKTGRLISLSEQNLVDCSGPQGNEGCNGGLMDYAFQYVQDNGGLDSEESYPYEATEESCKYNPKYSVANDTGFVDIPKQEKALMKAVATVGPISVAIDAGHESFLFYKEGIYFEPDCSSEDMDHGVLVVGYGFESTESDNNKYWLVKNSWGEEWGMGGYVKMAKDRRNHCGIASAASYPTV
Cathepsin S (Homo sapiens), sequence (P25774 115-331 limits assumed): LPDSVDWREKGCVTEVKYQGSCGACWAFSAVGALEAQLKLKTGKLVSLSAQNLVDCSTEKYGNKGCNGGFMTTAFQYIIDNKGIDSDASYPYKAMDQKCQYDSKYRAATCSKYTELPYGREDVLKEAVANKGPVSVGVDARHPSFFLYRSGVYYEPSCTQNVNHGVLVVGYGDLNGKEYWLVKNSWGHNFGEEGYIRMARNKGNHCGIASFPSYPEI

SMILES: CC(C)C[C@H](NC(=O)[C@H]1O[C@@H]1C(=O)O)C(=O)NCCCCN=C(N)N [E-64]
- inhibition at 5 µM (HUVEC [1]): 80%

SMILES: CCCC[Te](Cl)(Cl)c1ccccc1[C@H](C)OC
- K [2]: 7400 M⁻¹ s⁻¹
- inhibition (B16F10Nex2 [3]): Active
- Activity (HT-144 [4]): Active
- Activity (B16F10Nex2 [5]): Dose-dependent effect
- IC50 (B16F10Nex2 [5]): 0.9 mM
- Activity (B16F10Nex2 [6]): Active
- inhibition at 20 µM (B16F10Nex2 [7]): 80%
- Activity (HT-144 [8]): Active
- Activity (B16F10Nex2 [9]): Active
- fold change (FC) (B16F10Nex2 [10]): 7
- Activity (HT-144 [11]): Active
- IC50 (NIH3T3): 3.1 mM
- Activity (NIH3T3): Dose-dependent effect
- inhibition (B16F10Nex2 [12]): Active
- Activity (HT-144 [13]): Active
- Activity (SK-MEL-25): Dose-dependent effect
- IC50 (SK-MEL-25): 2.5 mM
- Activity (HT-144 [14]): Dose-dependent effect
- Activity (A2058): Dose-dependent effect
- IC50 (A2058): 1.5 mM
- Activity (HT-144 [15]): Active
- Activity (SK-MEL-28): Dose-dependent effect
- IC50 (SK-MEL-28): 3.1 mM
- IC50 (HUVEC [16]): 2.8 mM
- Activity (HUVEC [16]): Dose-dependent effect
- Activity (HT-144 [17]): Active
- Activity (HT-144 [18]): Active
- Activity (B16F10Nex2 [19]): Active
- inhibition (B16F10Nex2 [20]): Active
- Activity (MeWo): Dose-dependent effect
- IC50 (MeWo): 3.2 mM
- Activity (B16F10Nex2 [21]): Active
- inhibition (B16F10Nex2 [22]): Active
- K [23]: 8700 M⁻¹ s⁻¹
- Activity (B16F10Nex2 [24]): 85%
- K [25]: 600000 M⁻¹ s⁻¹
- Activity (HT-144 [26]): Active
- Activity (HeLa): Dose-dependent effect
- IC50 (HeLa): 0.8 mM
- inhibition at 0.062 µM (HUVEC [27]): 55%
- Activity (HUVEC [28]): Active
- inhibition at 20 µM (B16F10Nex2 [29]): 80%
- Activity (B16F10Nex2 [30]): Active

SMILES: CCCC[Te](Cl)(Cl)c1ccccc1[C@@H](C)OC
- K [2]: 3700 M⁻¹ s⁻¹
- inhibition (B16F10Nex2 [3]): Active
- Activity (HT-144 [4]): Active
- inhibition at 20 µM (HUVEC [31]): 33%
- Activity (B16F10Nex2 [5]): Dose-dependent effect
- IC50 (B16F10Nex2 [5]): 2.3 mM
- Activity (B16F10Nex2 [6]): Active
- inhibition at 20 µM (B16F10Nex2 [7]): 80%
- inhibition at 0.5 µM (HUVEC [32]): 45%
- Activity (HT-144 [8]): Active
- Activity (B16F10Nex2 [9]): Active
- fold change (FC) (B16F10Nex2 [10]): 2
- Activity (HT-144 [11]): Active
- IC50 (NIH3T3): 11.5 mM
- Activity (NIH3T3): Dose-dependent effect
- inhibition (B16F10Nex2 [12]): Active
- Activity (HT-144 [13]): Active
- Activity (SK-MEL-25): Dose-dependent effect
- IC50 (SK-MEL-25): 18 mM
- Activity (HT-144 [14]): Dose-dependent effect
- Activity (A2058): Dose-dependent effect
- IC50 (A2058): 5.5 mM
- Activity (HT-144 [15]): Active
- Activity (SK-MEL-28): Dose-dependent effect
- IC50 (SK-MEL-28): 6.2 mM
- IC50 (HUVEC [16]): 20.3 mM
- Activity (HUVEC [16]): Dose-dependent effect
- Activity (HT-144 [17]): Active
- Activity (HT-144 [18]): Active
- Activity (B16F10Nex2 [19]): Active
- inhibition (B16F10Nex2 [20]): Active
- Activity (MeWo): Dose-dependent effect
- IC50 (MeWo): 9.5 mM
- Activity (B16F10Nex2 [21]): Active
- inhibition (B16F10Nex2 [22]): Active
- K [23]: 5500 M⁻¹ s⁻¹
- Activity (B16F10Nex2 [24]): 58%
- K [25]: 39000 M⁻¹ s⁻¹
- Activity (HT-144 [26]): Active
- Activity (HeLa): Dose-dependent effect
- IC50 (HeLa): 2.3 mM
- Activity (HUVEC [28]): Active
- inhibition at 20 µM (B16F10Nex2 [29]): 80%
- Activity (B16F10Nex2 [30]): Active
